# Tests used:
# [1] = target: T1, Prostaglandin G/H synthase 1 (Rattus norvegicus, UniProt Q63921); assay type: functional
# T1 sequence (Q63921 whole entry): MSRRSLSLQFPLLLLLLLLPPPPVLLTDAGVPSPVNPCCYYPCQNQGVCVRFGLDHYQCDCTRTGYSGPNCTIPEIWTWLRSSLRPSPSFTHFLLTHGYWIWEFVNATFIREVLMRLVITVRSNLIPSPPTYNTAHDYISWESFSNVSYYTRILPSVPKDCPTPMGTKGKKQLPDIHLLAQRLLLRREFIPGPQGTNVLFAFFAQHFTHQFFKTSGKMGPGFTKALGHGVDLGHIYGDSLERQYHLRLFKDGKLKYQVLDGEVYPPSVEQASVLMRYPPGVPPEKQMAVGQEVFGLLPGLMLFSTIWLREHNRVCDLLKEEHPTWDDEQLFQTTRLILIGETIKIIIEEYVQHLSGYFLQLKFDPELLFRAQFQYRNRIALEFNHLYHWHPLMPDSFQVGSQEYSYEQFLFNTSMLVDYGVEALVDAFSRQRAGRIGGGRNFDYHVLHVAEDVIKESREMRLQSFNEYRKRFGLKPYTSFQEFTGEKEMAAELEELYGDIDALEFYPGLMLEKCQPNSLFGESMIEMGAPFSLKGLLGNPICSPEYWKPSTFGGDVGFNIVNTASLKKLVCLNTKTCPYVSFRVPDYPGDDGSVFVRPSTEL
# Androgen receptor = target: T2, Androgen receptor (Rattus norvegicus, UniProt P15207); assay type: functional
# T2 sequence (P15207 whole entry): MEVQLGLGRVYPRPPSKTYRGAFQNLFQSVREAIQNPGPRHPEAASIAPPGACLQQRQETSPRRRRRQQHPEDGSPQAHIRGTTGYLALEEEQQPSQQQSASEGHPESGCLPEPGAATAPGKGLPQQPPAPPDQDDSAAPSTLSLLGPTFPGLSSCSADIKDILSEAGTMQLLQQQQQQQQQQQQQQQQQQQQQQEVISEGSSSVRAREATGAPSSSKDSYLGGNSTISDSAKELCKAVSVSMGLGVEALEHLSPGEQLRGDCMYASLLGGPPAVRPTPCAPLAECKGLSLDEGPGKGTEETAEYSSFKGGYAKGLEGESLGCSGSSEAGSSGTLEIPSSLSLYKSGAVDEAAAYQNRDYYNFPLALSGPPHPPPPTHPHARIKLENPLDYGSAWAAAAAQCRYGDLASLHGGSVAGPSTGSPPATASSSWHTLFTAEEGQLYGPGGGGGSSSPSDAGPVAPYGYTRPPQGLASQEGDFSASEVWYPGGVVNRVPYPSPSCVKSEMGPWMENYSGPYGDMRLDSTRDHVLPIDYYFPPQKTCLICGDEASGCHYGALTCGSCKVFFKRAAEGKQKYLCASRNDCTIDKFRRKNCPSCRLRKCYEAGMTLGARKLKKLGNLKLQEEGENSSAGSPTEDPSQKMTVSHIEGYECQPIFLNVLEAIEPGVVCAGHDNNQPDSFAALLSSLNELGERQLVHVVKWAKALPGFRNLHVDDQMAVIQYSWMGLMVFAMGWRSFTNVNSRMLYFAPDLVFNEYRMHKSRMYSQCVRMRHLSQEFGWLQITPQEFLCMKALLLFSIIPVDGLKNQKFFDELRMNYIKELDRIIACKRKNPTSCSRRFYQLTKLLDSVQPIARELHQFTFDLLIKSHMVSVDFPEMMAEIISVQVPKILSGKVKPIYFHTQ
# [2] = target: Voltage-dependent L-type calcium channel subunit alpha-1C (Homo sapiens, UniProt Q13936); assay type: functional, cell-based
# Voltage-dependent L-type calcium channel subunit alpha-1C, sequence (Q13936 whole entry): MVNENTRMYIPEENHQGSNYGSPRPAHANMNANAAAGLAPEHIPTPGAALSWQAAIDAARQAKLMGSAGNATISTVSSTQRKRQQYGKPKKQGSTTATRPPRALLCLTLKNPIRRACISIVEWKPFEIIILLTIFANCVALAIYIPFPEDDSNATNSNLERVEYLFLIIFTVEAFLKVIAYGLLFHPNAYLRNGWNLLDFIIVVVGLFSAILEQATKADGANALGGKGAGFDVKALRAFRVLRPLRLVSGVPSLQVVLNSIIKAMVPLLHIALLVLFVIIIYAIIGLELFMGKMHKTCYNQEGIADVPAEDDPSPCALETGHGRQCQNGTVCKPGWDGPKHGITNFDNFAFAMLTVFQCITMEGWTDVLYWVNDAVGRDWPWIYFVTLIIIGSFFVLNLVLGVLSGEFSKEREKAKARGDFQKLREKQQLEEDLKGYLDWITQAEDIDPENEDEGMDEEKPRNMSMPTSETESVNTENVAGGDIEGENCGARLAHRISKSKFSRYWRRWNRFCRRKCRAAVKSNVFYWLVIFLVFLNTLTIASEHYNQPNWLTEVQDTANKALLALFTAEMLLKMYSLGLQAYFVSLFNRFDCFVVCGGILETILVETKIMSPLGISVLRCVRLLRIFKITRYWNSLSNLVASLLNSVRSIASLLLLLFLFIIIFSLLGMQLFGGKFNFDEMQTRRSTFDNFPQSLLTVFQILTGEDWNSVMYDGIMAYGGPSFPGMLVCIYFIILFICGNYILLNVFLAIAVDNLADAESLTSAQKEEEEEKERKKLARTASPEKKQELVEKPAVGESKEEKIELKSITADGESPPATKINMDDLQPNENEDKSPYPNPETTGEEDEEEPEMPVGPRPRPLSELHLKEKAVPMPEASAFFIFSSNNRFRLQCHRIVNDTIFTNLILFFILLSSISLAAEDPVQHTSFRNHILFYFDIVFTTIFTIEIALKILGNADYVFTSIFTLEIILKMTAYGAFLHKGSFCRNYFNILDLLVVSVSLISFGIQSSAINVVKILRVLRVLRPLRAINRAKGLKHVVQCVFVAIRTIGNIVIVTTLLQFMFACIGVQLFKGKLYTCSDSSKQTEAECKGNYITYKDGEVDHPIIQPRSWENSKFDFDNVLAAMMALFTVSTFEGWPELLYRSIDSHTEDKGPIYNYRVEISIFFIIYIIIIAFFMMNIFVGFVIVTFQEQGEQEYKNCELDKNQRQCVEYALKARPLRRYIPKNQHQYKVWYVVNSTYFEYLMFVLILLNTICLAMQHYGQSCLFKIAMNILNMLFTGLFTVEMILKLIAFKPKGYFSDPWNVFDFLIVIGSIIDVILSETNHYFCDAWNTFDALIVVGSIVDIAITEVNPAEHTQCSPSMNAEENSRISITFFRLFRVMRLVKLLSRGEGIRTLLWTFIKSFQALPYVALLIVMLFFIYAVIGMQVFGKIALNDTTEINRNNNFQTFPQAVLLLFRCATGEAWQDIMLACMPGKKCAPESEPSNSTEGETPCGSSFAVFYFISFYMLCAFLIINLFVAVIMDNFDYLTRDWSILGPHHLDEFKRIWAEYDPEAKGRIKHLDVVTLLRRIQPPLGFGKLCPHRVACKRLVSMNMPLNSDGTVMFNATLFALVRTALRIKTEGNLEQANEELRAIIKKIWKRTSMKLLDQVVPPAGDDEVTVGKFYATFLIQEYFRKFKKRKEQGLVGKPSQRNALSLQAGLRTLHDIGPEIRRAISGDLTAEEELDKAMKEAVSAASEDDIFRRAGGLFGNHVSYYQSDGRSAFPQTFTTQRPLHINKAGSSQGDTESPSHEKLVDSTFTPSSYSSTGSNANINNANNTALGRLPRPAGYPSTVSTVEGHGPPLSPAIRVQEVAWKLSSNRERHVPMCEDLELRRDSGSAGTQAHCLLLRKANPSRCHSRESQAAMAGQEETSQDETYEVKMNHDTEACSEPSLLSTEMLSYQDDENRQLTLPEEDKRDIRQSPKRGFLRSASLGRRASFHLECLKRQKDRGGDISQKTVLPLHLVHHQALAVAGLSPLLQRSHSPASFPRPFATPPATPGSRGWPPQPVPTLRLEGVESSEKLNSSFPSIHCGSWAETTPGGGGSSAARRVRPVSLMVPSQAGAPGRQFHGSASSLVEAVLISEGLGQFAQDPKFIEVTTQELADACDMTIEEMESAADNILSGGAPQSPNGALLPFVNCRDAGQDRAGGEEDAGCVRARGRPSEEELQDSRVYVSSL
# [3] = target: Sodium channel protein type 5 subunit alpha (Homo sapiens, UniProt Q14524); assay type: functional, cell-based
# [4] = target: T3, Muscarinic acetylcholine receptor M1 (Homo sapiens, UniProt P11229); assay type: functional, cell-based
# T3 sequence (P11229 whole entry): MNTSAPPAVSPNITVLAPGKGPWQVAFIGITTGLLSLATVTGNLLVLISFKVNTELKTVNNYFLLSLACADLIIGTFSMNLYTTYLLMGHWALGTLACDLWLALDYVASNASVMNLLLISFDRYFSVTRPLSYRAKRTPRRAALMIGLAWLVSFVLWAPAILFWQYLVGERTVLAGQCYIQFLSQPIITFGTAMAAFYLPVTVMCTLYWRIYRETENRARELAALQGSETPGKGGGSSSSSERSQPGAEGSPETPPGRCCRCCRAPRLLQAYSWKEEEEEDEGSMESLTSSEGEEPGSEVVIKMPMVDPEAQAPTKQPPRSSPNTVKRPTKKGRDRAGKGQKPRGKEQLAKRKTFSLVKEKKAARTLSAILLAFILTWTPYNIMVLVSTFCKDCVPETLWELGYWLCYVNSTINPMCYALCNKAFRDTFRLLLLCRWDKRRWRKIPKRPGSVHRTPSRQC
# Thromboxane A2 receptor [5] = target: T4, Thromboxane A2 receptor (Homo sapiens, UniProt P21731); assay type: functional
# T4 sequence (P21731 whole entry): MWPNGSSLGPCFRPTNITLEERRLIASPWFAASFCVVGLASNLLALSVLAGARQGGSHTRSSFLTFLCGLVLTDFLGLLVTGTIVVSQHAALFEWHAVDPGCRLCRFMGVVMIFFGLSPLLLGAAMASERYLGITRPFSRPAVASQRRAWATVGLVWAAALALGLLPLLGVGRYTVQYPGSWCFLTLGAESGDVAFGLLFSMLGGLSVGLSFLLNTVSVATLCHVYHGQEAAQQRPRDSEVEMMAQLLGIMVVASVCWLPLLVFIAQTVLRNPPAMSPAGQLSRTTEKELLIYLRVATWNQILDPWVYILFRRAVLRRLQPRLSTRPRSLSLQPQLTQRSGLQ
# [6] = target: Rod cGMP-specific 3',5'-cyclic phosphodiesterase subunit alpha (Homo sapiens, UniProt P16499); assay type: functional
# Rod cGMP-specific 3',5'-cyclic phosphodiesterase subunit alpha, sequence (P16499 whole entry): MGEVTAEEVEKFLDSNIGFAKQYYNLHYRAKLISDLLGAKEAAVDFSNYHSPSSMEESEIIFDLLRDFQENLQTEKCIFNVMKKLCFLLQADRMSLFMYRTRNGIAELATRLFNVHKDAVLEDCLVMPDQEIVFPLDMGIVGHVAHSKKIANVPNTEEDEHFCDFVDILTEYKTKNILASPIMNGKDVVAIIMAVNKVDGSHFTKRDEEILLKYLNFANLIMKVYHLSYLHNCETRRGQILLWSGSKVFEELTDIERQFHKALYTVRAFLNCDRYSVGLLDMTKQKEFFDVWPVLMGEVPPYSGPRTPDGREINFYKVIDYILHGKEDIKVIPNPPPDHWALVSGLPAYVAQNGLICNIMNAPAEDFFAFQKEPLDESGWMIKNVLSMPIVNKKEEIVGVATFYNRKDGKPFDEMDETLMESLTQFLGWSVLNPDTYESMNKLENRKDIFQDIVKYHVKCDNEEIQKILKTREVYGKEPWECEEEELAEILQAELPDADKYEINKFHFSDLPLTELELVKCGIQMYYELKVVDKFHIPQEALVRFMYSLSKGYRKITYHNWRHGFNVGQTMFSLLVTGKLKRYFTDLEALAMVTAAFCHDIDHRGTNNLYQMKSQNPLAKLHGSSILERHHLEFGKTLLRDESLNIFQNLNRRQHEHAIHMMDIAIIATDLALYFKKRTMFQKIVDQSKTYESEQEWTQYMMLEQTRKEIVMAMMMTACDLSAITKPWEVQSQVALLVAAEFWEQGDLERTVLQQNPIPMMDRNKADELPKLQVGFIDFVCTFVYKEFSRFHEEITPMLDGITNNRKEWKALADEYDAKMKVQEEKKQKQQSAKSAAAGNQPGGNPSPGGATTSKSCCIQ
# [7] = target: Vascular endothelial growth factor receptor 2 (Homo sapiens, UniProt P35968); assay type: functional
# Vascular endothelial growth factor receptor 2, sequence (P35968 whole entry): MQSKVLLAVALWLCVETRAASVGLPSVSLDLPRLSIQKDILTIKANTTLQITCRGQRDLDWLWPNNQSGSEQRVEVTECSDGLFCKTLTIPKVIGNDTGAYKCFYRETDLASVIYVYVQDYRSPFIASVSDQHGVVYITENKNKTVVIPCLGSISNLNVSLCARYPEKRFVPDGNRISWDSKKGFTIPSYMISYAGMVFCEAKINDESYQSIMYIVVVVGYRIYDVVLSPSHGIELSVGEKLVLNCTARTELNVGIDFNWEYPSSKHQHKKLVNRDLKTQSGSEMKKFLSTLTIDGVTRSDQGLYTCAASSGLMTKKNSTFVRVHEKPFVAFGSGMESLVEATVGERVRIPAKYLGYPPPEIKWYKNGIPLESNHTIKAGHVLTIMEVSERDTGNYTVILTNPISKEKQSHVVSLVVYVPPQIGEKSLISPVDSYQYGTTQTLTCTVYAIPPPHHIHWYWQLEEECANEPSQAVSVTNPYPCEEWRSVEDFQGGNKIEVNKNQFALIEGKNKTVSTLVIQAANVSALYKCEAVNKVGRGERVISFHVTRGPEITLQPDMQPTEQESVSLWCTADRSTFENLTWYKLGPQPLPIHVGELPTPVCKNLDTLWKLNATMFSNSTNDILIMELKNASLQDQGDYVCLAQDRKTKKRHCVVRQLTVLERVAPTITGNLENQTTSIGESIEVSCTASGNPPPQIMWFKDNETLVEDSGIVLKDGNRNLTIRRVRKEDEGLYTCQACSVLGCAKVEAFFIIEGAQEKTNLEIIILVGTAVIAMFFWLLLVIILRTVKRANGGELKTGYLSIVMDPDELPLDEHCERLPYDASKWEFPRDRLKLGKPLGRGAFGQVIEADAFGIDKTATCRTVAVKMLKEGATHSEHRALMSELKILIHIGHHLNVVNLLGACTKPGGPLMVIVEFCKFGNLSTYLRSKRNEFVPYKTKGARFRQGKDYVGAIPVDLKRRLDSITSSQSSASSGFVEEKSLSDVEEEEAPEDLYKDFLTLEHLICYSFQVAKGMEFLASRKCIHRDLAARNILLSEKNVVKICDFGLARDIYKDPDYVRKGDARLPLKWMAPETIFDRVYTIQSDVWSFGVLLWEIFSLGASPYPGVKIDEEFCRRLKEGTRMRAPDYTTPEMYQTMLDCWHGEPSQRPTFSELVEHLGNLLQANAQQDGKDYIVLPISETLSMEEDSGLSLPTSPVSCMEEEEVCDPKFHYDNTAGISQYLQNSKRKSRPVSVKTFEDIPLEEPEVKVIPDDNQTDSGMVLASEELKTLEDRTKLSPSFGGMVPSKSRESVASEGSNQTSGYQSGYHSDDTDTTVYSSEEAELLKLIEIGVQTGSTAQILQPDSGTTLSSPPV
# Thromboxane A2 receptor [8] = target: T4, Thromboxane A2 receptor; assay type: functional, cell-based
# Also: assay procedure not described here.
smiles,measurement,setting,value
CCCCCNC(=N)N/N=C/c1c[nH]c2ccc(OC)cc12 [TEGASEROD],AC50,[1],> 30 µM
CN(C)CC/C=C1\c2ccccc2CSc2ccccc21 [DOTHIEPIN],AC50,Androgen receptor,> 30 µM
CC[C@@H](C(N)=O)N1CCCC1=O,AC50,[2],> 50 µM
same,AC50,[3],> 50 µM
NC1CCN(c2c(F)cc3c(=O)c(C(=O)O)cn(C4CC4)c3c2Cl)C1 (centres undefined) [CLINAFLOXACIN],AC50,[4],> 300 µM
CCOc1ccccc1OCC1CNCCO1 (centres undefined) [VILOXAZINE],AC50,Thromboxane A2 receptor [5],> 30 µM
same,AC50,[6],> 10 µM
same,AC50,[7],> 30 µM
same,AC50,Thromboxane A2 receptor [8],> 30 µM

# — ChEMBL document CHEMBL5291721, “A preclinical secondary pharmacology resource illuminates target-adverse drug reaction associations of marketed drugs” (Nat Commun, 2023)
